Blank lines part the entries; values can stand above or below the compound they belong to.
Tests used:
[1] = molecular target: ATP-binding cassette sub-family C member 3 (Homo sapiens, UniProt O15438); experiment: Inhibition of human MRP3 overexpressed in Sf9 insect cell membrane vesicles assessed as uptake of [3H]-estradiol-17beta-D-glucuronide in presence of ATP and GSH measured after 10 mins by membrane vesicle transport assay; type: ADME, cell-based
[2] = Ratio of drug concentration at steady state in human at 40 to 80 mg, po TID after 8 hrs to IC50 for human MRP4 overexpressed in Sf9 insect cells; type: ADME, organism-based; settings: in vivo
[3] = molecular target: ATP-binding cassette sub-family C member 2 (Homo sapiens, UniProt Q92887); experiment: Inhibition of human MRP2 overexpressed in Sf9 cell membrane vesicles assessed as uptake of [3H]-estradiol-17beta-D-glucuronide in presence of ATP and GSH measured after 20 mins by membrane vesicle transport assay
ATP-binding cassette sub-family C member 2, sequence (Q92887 whole entry): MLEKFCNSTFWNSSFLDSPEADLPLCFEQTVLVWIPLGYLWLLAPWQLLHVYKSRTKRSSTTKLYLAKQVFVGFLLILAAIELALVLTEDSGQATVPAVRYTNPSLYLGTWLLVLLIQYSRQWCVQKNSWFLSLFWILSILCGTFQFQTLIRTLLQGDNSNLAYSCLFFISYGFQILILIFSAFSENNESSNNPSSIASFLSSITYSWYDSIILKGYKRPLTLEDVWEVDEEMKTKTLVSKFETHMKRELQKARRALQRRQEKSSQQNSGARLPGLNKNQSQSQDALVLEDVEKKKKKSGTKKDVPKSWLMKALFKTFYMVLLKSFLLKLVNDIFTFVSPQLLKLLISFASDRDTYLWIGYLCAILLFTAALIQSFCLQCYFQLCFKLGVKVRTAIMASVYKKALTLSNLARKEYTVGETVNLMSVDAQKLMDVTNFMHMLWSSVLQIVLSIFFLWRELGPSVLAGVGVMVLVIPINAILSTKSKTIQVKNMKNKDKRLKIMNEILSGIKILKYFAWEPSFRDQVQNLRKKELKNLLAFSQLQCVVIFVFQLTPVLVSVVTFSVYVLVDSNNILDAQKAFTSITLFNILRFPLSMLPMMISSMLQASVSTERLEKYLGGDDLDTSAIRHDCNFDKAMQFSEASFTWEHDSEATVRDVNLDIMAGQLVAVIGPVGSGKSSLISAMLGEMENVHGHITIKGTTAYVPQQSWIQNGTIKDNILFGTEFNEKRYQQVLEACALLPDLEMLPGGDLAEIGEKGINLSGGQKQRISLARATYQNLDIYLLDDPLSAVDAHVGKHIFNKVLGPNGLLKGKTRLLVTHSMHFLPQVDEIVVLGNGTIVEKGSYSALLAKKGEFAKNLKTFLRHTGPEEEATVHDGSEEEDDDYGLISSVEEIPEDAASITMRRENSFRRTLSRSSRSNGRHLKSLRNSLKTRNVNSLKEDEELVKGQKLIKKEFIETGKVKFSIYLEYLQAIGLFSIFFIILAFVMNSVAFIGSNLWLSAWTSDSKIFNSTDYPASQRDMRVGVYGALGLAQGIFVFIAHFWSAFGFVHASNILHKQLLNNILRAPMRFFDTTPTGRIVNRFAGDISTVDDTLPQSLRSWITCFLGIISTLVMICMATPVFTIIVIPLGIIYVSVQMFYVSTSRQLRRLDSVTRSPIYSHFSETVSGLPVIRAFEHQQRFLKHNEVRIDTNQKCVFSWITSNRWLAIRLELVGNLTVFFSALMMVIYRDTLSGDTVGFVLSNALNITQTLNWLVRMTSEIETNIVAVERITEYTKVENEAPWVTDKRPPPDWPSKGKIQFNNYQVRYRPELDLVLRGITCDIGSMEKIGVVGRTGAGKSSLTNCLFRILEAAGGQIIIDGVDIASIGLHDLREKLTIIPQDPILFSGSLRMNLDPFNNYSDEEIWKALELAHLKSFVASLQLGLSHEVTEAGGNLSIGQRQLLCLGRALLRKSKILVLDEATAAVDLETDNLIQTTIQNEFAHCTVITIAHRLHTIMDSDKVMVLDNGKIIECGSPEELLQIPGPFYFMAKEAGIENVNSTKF

[4] = AUC in human at 40 to 80 mg, po TID after 8 hrs; type: ADME, organism-based; settings: in vivo
[5] = Ratio of drug concentration at steady state in human at 40 to 80 mg, po TID after 8 hrs to IC50 for human BSEP overexpressed in Sf9 insect cells; type: ADME, organism-based; settings: in vivo
[6] = Drug concentration at steady state in human at 40 to 80 mg, po TID after 8 hrs; type: ADME, organism-based; settings: in vivo, read-out: Css
[7] = molecular target: T1, ATP-binding cassette sub-family C member 4 (Homo sapiens, UniProt O15439); experiment: Inhibition of human MRP4 overexpressed in Sf9 cell membrane vesicles assessed as uptake of [3H]-estradiol-17beta-D-glucuronide in presence of ATP and GSH measured after 20 mins by membrane vesicle transport assay; type: ADME, cell-based
T1 sequence (O15439 whole entry): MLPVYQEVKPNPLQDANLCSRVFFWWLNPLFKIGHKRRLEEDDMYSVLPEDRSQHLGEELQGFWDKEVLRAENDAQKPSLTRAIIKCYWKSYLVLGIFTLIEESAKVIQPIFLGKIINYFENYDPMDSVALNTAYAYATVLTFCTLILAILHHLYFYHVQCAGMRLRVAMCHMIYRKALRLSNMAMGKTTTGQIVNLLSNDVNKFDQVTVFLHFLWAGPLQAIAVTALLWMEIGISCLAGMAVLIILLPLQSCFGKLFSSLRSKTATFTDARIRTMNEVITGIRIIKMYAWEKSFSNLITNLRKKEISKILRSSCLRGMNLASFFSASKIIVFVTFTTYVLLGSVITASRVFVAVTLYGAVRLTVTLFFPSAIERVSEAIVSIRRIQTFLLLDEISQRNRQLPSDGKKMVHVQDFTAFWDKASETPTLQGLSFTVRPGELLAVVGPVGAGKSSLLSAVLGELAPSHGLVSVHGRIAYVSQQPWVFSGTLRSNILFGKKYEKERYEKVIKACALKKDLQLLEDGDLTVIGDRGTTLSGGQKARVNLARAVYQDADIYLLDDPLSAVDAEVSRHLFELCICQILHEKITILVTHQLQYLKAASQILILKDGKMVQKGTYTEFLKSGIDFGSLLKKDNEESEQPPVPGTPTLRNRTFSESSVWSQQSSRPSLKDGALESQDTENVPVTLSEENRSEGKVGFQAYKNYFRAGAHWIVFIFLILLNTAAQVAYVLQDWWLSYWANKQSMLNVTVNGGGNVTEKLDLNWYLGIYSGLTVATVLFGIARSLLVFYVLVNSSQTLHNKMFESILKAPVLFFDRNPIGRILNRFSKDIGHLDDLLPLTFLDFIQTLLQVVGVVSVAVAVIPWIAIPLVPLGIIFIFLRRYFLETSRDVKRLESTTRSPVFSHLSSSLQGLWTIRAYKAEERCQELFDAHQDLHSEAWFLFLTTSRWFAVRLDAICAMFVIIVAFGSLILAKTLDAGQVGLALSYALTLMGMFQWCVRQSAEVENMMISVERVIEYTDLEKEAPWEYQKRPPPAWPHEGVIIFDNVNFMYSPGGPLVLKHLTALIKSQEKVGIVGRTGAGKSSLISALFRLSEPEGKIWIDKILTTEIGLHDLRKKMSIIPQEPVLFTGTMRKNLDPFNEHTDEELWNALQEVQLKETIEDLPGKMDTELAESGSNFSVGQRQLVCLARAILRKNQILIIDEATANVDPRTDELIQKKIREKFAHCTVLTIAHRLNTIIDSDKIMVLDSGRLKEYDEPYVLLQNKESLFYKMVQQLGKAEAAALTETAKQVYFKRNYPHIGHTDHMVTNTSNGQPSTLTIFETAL

[8] = test system: Homo sapiens; experiment: Drug concentration at steady state in human at 5 to 20 mg, iv after 24 hrs; type: ADME, organism-based; settings: in vivo
[9] = AUC in human at 5 to 20 mg, iv after 24 hrs; type: ADME, organism-based; settings: in vivo
[10] = Ratio of drug concentration at steady state in human at 62.5 to 125 mg, po BID after 12 hrs to IC50 for human MRP3 overexpressed in Sf9 insect cells; type: ADME, organism-based; settings: in vivo
[11] = Ratio of drug concentration at steady state in human at 62.5 to 125 mg, po BID after 12 hrs to IC50 for human BSEP overexpressed in Sf9 insect cells; type: ADME, organism-based; settings: in vivo
[12] = test system: Homo sapiens; experiment: Drug concentration at steady state in human at 62.5 to 125 mg, po BID after 12 hrs; type: ADME, organism-based; settings: in vivo
[13] = molecular target: Bile salt export pump (Homo sapiens, UniProt O95342); experiment: Inhibition of human BSEP overexpressed in Sf9 cell membrane vesicles assessed as uptake of [3H]-taurocholate in presence of ATP measured after 15 to 20 mins by membrane vesicle transport assay; type: ADME, cell-based
Bile salt export pump, sequence (O95342 whole entry): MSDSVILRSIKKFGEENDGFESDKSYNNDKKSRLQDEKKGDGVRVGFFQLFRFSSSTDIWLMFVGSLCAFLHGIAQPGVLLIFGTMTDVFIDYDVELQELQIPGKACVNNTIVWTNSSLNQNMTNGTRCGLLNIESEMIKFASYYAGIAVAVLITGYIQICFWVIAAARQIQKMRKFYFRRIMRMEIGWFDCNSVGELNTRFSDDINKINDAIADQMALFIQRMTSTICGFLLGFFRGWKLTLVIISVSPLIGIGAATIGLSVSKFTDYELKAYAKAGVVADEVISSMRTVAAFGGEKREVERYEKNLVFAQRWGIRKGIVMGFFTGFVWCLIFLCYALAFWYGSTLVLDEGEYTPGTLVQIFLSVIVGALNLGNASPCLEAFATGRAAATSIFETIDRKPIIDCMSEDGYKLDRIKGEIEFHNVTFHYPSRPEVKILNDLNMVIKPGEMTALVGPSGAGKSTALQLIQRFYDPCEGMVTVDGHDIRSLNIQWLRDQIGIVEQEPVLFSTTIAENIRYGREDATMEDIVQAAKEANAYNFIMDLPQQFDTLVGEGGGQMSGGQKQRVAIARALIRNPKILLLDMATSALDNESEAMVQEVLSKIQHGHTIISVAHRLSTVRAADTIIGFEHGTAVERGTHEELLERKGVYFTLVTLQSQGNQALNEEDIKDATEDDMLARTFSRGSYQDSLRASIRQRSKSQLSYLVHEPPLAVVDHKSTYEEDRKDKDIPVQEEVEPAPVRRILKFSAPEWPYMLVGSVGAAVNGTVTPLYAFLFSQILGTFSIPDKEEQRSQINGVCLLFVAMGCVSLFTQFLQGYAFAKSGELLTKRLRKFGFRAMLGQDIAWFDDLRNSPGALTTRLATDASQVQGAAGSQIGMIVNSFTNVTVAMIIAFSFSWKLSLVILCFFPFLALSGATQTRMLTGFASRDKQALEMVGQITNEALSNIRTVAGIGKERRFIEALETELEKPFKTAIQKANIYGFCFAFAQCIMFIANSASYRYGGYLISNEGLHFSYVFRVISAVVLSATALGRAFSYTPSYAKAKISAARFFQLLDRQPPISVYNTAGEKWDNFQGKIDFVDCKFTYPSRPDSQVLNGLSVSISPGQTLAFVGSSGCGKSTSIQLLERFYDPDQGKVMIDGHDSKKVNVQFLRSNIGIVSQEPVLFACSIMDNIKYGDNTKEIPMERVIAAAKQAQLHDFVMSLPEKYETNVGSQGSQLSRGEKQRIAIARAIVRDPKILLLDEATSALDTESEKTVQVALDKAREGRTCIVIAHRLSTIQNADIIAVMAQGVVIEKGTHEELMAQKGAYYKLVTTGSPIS

[14] = Ratio of drug concentration at steady state in human at 62.5 to 125 mg, po BID after 12 hrs to IC50 for human MRP4 overexpressed in Sf9 insect cells; type: ADME, organism-based; settings: in vivo
[15] = AUC in human at 62.5 to 125 mg, po BID after 12 hrs; type: ADME, organism-based; settings: in vivo
[16] = Drug concentration at steady state in human at 10 to 20 mg, po QID after 6 hrs; type: ADME, organism-based; settings: in vivo, read-out: Css
[17] = AUC in human at 10 to 20 mg, po QID after 6 hrs; type: ADME, organism-based; settings: in vivo
[18] = Ratio of drug concentration at steady state in human at 10 to 20 mg, po QID after 6 hrs to IC50 for human BSEP overexpressed in Sf9 insect cells; type: ADME, organism-based; settings: in vivo
[19] = AUC in human at 10 to 20 mg, po BID after 12 hrs; type: ADME, organism-based; settings: in vivo
[20] = Ratio of drug concentration at steady state in human at 10 to 20 mg, po BID after 12 hrs to IC50 for human BSEP overexpressed in Sf9 insect cells; type: ADME, organism-based; settings: in vivo
[21] = Drug concentration at steady state in human at 10 to 20 mg, po BID after 12 hrs; type: ADME, organism-based; settings: in vivo, read-out: Css
[22] = Ratio of drug concentration at steady state in human at 10 to 20 mg, po BID after 12 hrs to IC50 for human MRP4 overexpressed in Sf9 insect cells; type: ADME, organism-based; settings: in vivo
[23] = Ratio of drug concentration at steady state in human at 10 to 20 mg, po BID after 12 hrs to IC50 for human MRP2 overexpressed in Sf9 insect cells; type: ADME, organism-based; settings: in vivo

ATP-binding cassette sub-family C member 3, sequence (O15438 whole entry): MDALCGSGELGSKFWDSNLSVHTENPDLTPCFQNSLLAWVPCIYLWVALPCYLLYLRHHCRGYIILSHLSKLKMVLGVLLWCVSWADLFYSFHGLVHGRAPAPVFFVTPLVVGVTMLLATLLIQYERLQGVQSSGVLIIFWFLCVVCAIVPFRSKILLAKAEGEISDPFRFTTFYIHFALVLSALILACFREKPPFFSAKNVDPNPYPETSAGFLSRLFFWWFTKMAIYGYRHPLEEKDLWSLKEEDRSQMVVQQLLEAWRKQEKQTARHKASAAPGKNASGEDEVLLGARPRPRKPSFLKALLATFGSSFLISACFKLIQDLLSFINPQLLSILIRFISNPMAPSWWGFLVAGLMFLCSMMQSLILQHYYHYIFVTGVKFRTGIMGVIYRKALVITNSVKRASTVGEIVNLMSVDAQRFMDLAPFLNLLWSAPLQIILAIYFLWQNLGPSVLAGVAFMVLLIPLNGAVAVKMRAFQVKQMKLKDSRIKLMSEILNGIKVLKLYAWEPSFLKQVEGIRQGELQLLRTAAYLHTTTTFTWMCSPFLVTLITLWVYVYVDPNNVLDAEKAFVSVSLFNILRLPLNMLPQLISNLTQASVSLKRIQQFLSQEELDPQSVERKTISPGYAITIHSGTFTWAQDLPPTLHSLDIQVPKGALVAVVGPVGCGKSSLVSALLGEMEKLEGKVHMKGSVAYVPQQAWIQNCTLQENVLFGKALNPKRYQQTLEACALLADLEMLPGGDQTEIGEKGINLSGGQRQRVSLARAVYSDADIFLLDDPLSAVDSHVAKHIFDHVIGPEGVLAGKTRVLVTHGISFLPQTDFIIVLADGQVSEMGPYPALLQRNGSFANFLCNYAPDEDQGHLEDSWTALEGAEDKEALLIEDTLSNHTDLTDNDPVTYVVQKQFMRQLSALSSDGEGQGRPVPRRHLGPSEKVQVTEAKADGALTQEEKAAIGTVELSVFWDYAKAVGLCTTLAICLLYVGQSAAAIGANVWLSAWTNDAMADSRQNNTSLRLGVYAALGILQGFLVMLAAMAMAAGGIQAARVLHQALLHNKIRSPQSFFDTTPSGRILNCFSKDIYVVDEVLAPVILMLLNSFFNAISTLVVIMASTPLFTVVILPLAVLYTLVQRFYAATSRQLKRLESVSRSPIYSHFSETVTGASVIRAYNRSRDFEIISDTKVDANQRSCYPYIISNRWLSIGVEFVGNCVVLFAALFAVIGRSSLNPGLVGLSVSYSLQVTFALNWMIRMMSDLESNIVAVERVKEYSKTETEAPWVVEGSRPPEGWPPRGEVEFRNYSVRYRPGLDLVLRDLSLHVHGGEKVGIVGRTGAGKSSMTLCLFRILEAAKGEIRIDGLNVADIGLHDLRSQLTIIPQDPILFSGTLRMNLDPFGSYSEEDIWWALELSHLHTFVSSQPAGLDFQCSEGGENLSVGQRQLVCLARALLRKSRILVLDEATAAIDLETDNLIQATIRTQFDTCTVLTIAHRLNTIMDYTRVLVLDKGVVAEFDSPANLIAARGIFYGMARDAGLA

IC50 [1]: > 133 µM | Ratio [2]: 0.042 | IC50 [3]: > 133 µM | AUC at 8 h [4]: 8.18 µM·h | concentration at 8 h [6]: 1020 nM | IC50 [7]: 24.5 µM
Structure (SMILES): CCOc1ccc(/C=C2\NCCc3cc(OCC)c(OCC)cc32)cc1OCC [DROTAVERINE]
Ratio [5]: 0.028

IC50 [1]: 71.9 µM | Css [8]: 0.079 µM | IC50 [3]: 17.6 µM | AUC at 24 h [9]: 1.91 µM·h | IC50 [7]: 44 µM
Structure (SMILES): CO[C@H]1C[C@@H]2CC[C@@H](C)[C@@](O)(O2)C(=O)C(=O)N2CCCC[C@H]2C(=O)O[C@H]([C@H](C)C[C@@H]2CC[C@@H](OC(=O)C(C)(CO)CO)[C@H](OC)C2)CC(=O)[C@H](C)/C=C(\C)[C@@H](O)[C@@H](OC)C(=O)[C@H](C)C[C@H](C)/C=C/C=C/C=C/1C [TEMSIROLIMUS]

Ratio [10]: 0.032 | IC50 [1]: 42 µM | Css [12]: 1.347 µM | Ratio [14]: 0.061 | AUC at 12 h [15]: 16.2 µM·h | IC50 [7]: 22 µM
Structure (SMILES): COc1ccccc1Oc1c(NS(=O)(=O)c2ccc(C(C)(C)C)cc2)nc(-c2ncccn2)nc1OCCO [BOSENTAN]
Ratio [11]: 0.059 | IC50 [13]: 23 µM

IC50 [1]: > 133 µM | concentration at 6 h [16]: 797 nM | IC50 [3]: > 133 µM | AUC at 6 h [17]: 4.78 µM·h | IC50 [7]: > 133 µM
Structure (SMILES): COc1cc(N)c(Cl)cc1C(=O)NC1CCN(CCCOc2ccc(F)cc2)CC1OC.O (stereo unspecified) [CISAPRIDE MONOHYDRATE]
IC50 [13]: 22 µM | Ratio [18]: 0.036

IC50 [1]: > 133 µM | AUC at 12 h [19]: 3.6 µM·h | concentration at 12 h [21]: 300 nM | IC50 [3]: 58.8 µM | Ratio [22]: 0.025 | Ratio [23]: 0.005 | IC50 [7]: 12.1 µM
Structure (SMILES): COc1cc(C(=O)NS(=O)(=O)c2ccccc2C)ccc1Cc1cn(C)c2ccc(NC(=O)OC3CCCC3)cc12 [ZAFIRLUKAST]
Ratio [20]: 0.027 | IC50 [13]: 11.1 µM

Reference: ChEMBL document CHEMBL4028801, “A multifactorial approach to hepatobiliary transporter assessment enables improved therapeutic compound development” (Toxicol Sci, 2013)
